In patent US10316017B2, “COT modulators and methods of use thereof” (Gilead Sciences, Inc., priority 2015, dated 2019):

molecular target: T1, human Cot catalytic domain (30-397 amino acids) (Homo sapiens, UniProt P41279); assay: High Throughput Cot Biochemical Assay (KinEASE TR-FRET); details: Cot KinEASE TR-FRET, 400 μM ATP; read-out: IC50 HTRF
T1 construct: Purified recombinant human Cot catalytic domain (30-397 amino acids) was purchased from Cama Biosciences; purchased Cama Biosciences (so in the source)
T1 sequence (P41279 30-397): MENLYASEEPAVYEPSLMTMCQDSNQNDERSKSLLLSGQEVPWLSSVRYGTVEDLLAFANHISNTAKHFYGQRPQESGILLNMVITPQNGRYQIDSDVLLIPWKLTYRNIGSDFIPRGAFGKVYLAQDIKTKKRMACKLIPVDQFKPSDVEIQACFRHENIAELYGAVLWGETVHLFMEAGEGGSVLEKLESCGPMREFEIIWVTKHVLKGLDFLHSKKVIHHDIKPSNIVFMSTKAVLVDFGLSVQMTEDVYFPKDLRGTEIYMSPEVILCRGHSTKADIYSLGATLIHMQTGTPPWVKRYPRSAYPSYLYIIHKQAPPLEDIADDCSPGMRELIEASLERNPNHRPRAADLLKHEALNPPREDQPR
Description: Example 61: High Throughput Cot Biochemical Assay
In this assay, Cot-catalyzes the phosphorylation of a XL665-labeled peptide substrate. Europium conjugated phospho-tyrosine specific antibody binds the resulting phosphorylated peptide. […] Purified recombinant human Cot catalytic domain (30-397 amino acids) was purchased from Cama Biosciences. […] The standard 5 μL reaction mixture contained 400 μM ATP, 1 μM STK3 peptide, 5 nM of Cot in reaction buffer (10 mM MOPS, pH 7.0, 0.02% NaN3, 0.5 mg/mL BSA, 10 mM MgOAc, 1 mM DTT, 0.025% NP-40, 1.5% glycerol) and 0.1% DMSO.

IC50 | SMILES
21 nM | N#Cc1cnc2c(Cl)cc(NC(c3ccc(F)cc3)c3cn(C4CCNC4)nn3)cc2c1Nc1ccc(F)c(Cl)c1 (stereo in doubt) [Example 873, 8-chloro-4-((3-chloro-4-fluorophenyl)amino)-6-(((4-fluorophenyl)(1-((S)-pyrrolidin-3-yl)-1H-1,2,3-triazol-4-yl)methyl)amino)quinoline-3-carbonitrile]
13 nM | CCN1CCC(n2cc(C(Nc3cc(Cl)c4ncc(C#N)c(Nc5ccc(F)c(Cl)c5)c4c3)c3ccc(Cl)cc3)nn2)CC1 (stereo not shown) [Compound 6]
19 nM | N#Cc1cnc2c(Cl)cc(N[C@@H](c3ccc(F)cc3)c3cn(C4CCN(C5COC5)CC4)nn3)cc2c1Nc1ccc(F)c(Cl)c1 [Compound 31]
2 nM | COCc1cccc([C@H](Nc2cc(Cl)c3ncc(C#N)c(Nc4ccc(F)c(Cl)c4)c3c2)c2cn(C3CCN(C(C)(C)C)CC3)nn2)c1 [Compound 38]
1990 nM | COC(=O)c1cccc([C@@H](c2cn(C3CCN(C(C)(C)C)CC3)nn2)N(C)c2cc(Cl)c3ncc(C#N)c(Nc4ccc(F)c(Cl)c4)c3c2)c1 [Compound 39]
1580 nM | N#Cc1cnc2c(Cl)cc(NC(c3ccc(F)cc3)c3ccno3)cc2c1Nc1ccc(F)c(Cl)c1 (stereo not shown) [Example 717, 8-chloro-4-((3-chloro-4-fluorophenyl)amino)-6-(((4-fluorophenyl)(isoxazol-5-yl)methyl)amino)quinoline-3-carbonitrile]
3460 nM | Cc1snnc1C(Nc1cc(Cl)c2ncc(C#N)c(Nc3ccc(F)c(Cl)c3)c2c1)c1ccc(F)cc1 (stereo not shown) [Example 718, 8-chloro-4-((3-chloro-4-fluorophenyl)amino)-6-(((4-fluorophenyl)(5-methyl-1,2,3-thiadiazol-4-yl)methyl)amino)quinoline-3-carbonitrile]
338 nM | C#CC(c1ccc(Cl)cc1)N(c1cc(Cl)c2ncc(C#N)c(Nc3cncc(Cl)c3)c2c1)C(c1ccc(Cl)cc1)c1cn(C2CCN(C(C)(C)C)CC2)nn1 (stereo not shown) [Example 725, 6-(((1-(1-(tert-butyl)piperidin-4-yl)-1H-1,2,3-triazol-4-yl)(4-chlorophenyl)methyl)(1-(4-chlorophenyl)prop-2-yn-1-yl)amino)-8-chloro-4-((5-chloropyridin-3-yl)amino)quinoline-3-carbonitrile]
39 nM | CN(C)CCNCc1cccc([C@H](Nc2cc(Cl)c3ncc(C#N)c(Nc4ccc(F)c(Cl)c4)c3c2)c2cn(C3CCN(C(C)(C)C)CC3)nn2)c1 [Example 726, (S)-6-(((1-(1-(tert-butyl)piperidin-4-yl)-1H-1,2,3-triazol-4-yl)(3-(((2-(dimethylamino)ethyl)amino)methyl)phenyl)methyl)amino)-8-chloro-4-((3-chloro-4-fluorophenyl)amino)quinoline-3-carbonitrile]
12 nM | Cn1cc(C(Nc2cc(Cl)c3ncc(C#N)c(Nc4ccc(F)c(Cl)c4)c3c2)c2cccc(C3OCCO3)c2)nn1 (stereo not shown) [Example 730, 6-(((3-(1,3-dioxolan-2-yl)phenyl)(1-methyl-1H-1,2,3-triazol-4-yl)methyl)amino)-8-chloro-4-((3-chloro-4-fluorophenyl)amino)quinoline-3-carbonitrile]
30 nM | CC(C)(C)N1CCC(n2cc([C@@H](Nc3cc(Cl)c4ncc(C#N)c(Nc5ccc(F)c(F)c5)c4c3)c3ccc(Cl)cc3)nn2)CC1 [Example 732, (S)-6-(((1-(1-(tert-butyl)piperidin-4-yl)-1H-1,2,3-triazol-4-yl)(4-chlorophenyl)methyl)amino)-8-chloro-4-((3,4-difluorophenyl)amino)quinoline-3-carbonitrile]
105 nM | CN(C)Cc1ccc([C@H](Nc2cc(Cl)c3ncc(C#N)c(Nc4ccc(F)c(Cl)c4)c3c2)c2cn(C3CCN(C(C)(C)C)CC3)nn2)cc1 [Example 735, (S)-6-(((1-(1-(tert-butyl)piperidin-4-yl)-1H-1,2,3-triazol-4-yl)(4-((dimethylamino)methyl)phenyl)methyl)amino)-8-chloro-4-((3-chloro-4-fluorophenyl)amino)quinoline-3-carbonitrile]
3210 nM | CN(c1ccc(F)c(Cl)c1)c1c(C#N)cnc2c(Cl)cc(N[C@@H](c3ccc(Cl)cc3)c3cn(C4CCN(C(C)(C)C)CC4)nn3)cc12 [Example 749, (S)-6-(((1-(1-(tert-butyl)piperidin-4-yl)-1H-1,2,3-triazol-4-yl)(4-chlorophenyl)methyl)amino)-8-chloro-4-((3-chloro-4-fluorophenyl)(methyl)amino) quinoline-3-carbonitrile]
> 10000 nM | COc1cc(Nc2c(C#N)cnc3c(Cl)cc(N[C@@H](c4ccc(Cl)cc4)c4cn(C5CCN(C(C)(C)C)CC5)nn4)cc23)c(Cl)cc1Cl [Example 751, (S)-6-(((1-(1-(tert-butyl)piperidin-4-yl)-1H-1,2,3-triazol-4-yl)(4-chlorophenyl)methyl)amino)-8-chloro-4-((2,4-dichloro-5-methoxyphenyl)amino)quinoline-3-carbonitrile]
> 10000 nM | CC(C)(C)N1CCC(n2cc([C@@H](Nc3cc(Cl)c4ncc(C#N)c(Nc5ccn(CC(F)(F)F)n5)c4c3)c3ccc(Cl)cc3)nn2)CC1 [Example 752, (S)-6-(((1-(1-(tert-butyl)piperidin-4-yl)-1H-1,2,3-triazol-4-yl)(4-chlorophenyl)methyl)amino)-8-chloro-4-((1-(2,2,2-trifluoroethyl)-1H-pyrazol-3-yl)amino)quinoline-3-carbonitrile]
2530 nM | CC(C)(C)N1CCC(n2cc([C@@H](Nc3cc(Cl)c4ncc(C#N)c(Nc5ccc(F)c(S(C)(=O)=O)c5)c4c3)c3ccc(Cl)cc3)nn2)CC1 [Example 754, (S)-6-(((1-(1-(tert-butyl)piperidin-4-yl)-1H-1,2,3-triazol-4-yl)(4-chlorophenyl)methyl)amino)-8-chloro-4-((4-fluoro-3-(methylsulfonyl)phenyl)amino) quinoline-3-carbonitrile]
2340 nM | CC(C)(C)N1CCC(n2cc([C@@H](Nc3ccc4nc(N)c(C#N)c(Nc5ccc(F)c(Cl)c5)c4c3)c3ccc(Cl)cc3)nn2)CC1 [Example 760, (S)-2-amino-6-(((1-(1-(tert-butyl)piperidin-4-yl)-1H-1,2,3-triazol-4-yl)(4-chlorophenyl)methyl)amino)-4-((3-chloro-4-fluorophenyl)amino)quinoline-3-carbonitrile]
484 nM | CC(C)(C)N1CCC(n2cc([C@@H](Nc3cc(Cl)c4ncc(C#N)c(Nc5cccc(C(F)F)c5)c4c3)c3ccc(Cl)cc3)nn2)CC1 [Example 761, (S)-6-(((1-(1-(tert-butyl)piperidin-4-yl)-1H-1,2,3-triazol-4-yl)(4-chlorophenyl)methyl)amino)-8-chloro-4-((3-(difluoromethyl)phenyl)amino) quinoline-3-carbonitrile]
513 nM | CC(C)(C)N1CCC(n2cc([C@@H](Nc3cc(Cl)c4ncc(C#N)c(Nc5cccc(C(F)(F)F)c5)c4c3)c3ccc(Cl)cc3)nn2)CC1 [Example 762, (S)-6-(((1-(1-(tert-butyl)piperidin-4-yl)-1H-1,2,3-triazol-4-yl)(4-chlorophenyl)methyl)amino)-8-chloro-4-((3-(trifluoromethyl)phenyl)amino) quinoline-3-carbonitrile]
23 nM | CC(C)(C)N1CCC(n2cc([C@@H](Nc3cc(Cl)c4ncc(C#N)c(Nc5ccc(F)c(Br)c5)c4c3)c3ccc(Cl)cc3)nn2)CC1 [Example 763, (S)-4-((3-bromo-4-fluorophenyl)amino)-6-(((1-(1-(tert-butyl)piperidin-4-yl)-1H-1,2,3-triazol-4-yl)(4-chlorophenyl)methyl)amino)-8-chloroquinoline-3-carbonitrile]
> 10000 nM | COc1cc2ncc(C#N)c(Nc3ccc(F)c(Cl)c3)c2cc1N[C@@H](c1ccc(Cl)cc1)c1cn(C2CCN(C(C)(C)C)CC2)nn1 [Example 769, (S)-6-(((1-(1-(tert-butyl)piperidin-4-yl)-1H-1,2,3-triazol-4-yl)(4-chlorophenyl)methyl)amino)-4-((3-chloro-4-fluorophenyl)amino)-7-methoxyquinoline-3-carbonitrile]
60 nM | CC(C)(C)N1CCC(n2cc([C@@H](Nc3cc(Cl)c4ncc(C#N)c(Nc5ccc(C#N)c(Cl)c5)c4c3)c3ccc(Cl)cc3)nn2)CC1 [Example 770, (S)-6-(((1-(1-(tert-butyl)piperidin-4-yl)-1H-1,2,3-triazol-4-yl)(4-chlorophenyl)methyl)amino)-8-chloro-4-((3-chloro-4-cyanophenyl)amino)quinoline-3-carbonitrile]
93 nM | CC(C)(C)N1CCC(n2cc([C@@H](Nc3cc(Cl)c4ncc(C#N)c(Nc5cncc(F)c5)c4c3)c3ccc(Cl)cc3)nn2)CC1 [Example 771, (S)-6-(((1-(1-(tert-butyl)piperidin-4-yl)-1H-1,2,3-triazol-4-yl)(4-chlorophenyl)methyl)amino)-8-chloro-4-((5-fluoropyridin-3-yl)amino)quinoline-3-carbonitrile]
324 nM | CC(C)(C)N1CCC(n2cc([C@@H](Nc3cc(Cl)c4ncc(C#N)c(Nc5cccnc5)c4c3)c3ccc(Cl)cc3)nn2)CC1 [Example 772, (S)-6-(((1-(1-(tert-butyl)piperidin-4-yl)-1H-1,2,3-triazol-4-yl)(4-chlorophenyl)methyl)amino)-8-chloro-4-(pyridin-3-ylamino)quinoline-3-carbonitrile]

same assay, conditions: first value of the cell IC50/EC50; 400 μM ATP, 5 nM Cot; read-out: IC50/EC50 [nM]: IC50 (Cot)

SMILES | IC50
CCN1CCC(n2cc([C@H](C)Nc3cc(Cl)c4ncc(C#N)c(Nc5ccc(F)c(Cl)c5)c4c3)nn2)CC1 [Comparative Example 2, reference compound] | 62 nM
